{"source": "patent US10550127B1", "about": "“Indanylaminoazadihydrobenzofuranylacetic acids, pharmaceutical compositions for the treatment of diabetes” (Boehringer Ingelheim International GmbH, priority 2017, dated 2020)", "key": {"[1]": {"test": "Aqueous solubility", "type": "physicochemical", "details": "aqueous buffer, kinetic from dmso stock, buffer pH 2.2, 24 h shaking, 2.5% DMSO", "protocol": "The aqueous solubility of the compounds of the invention is determined by comparing the amount dissolved in buffer to the amount in an acetonitrile/water (1/1) solution. Starting from a 10 mM DMSO stock solution aliquots are diluted with acetonitrile/water (1/1) or buffer, respectively. After 24 h of shaking, the solutions are filtrated and analyzed by LC-UV. The amount dissolved in buffer is compared to the amount in the acetonitrile solution.\nSolubility is usually being measured from 0.001 to 0.125 mg/mL at a DMSO concentration of 2.5%. If more than 90% of the compound is dissolved in buffer, the value is marked with “>”."}, "[2]": {"molecular_target": "cytochrome P450 2C8-isoenzyme (Homo sapiens (Human), UniProt P10632)", "sequence (P10632 whole entry)": "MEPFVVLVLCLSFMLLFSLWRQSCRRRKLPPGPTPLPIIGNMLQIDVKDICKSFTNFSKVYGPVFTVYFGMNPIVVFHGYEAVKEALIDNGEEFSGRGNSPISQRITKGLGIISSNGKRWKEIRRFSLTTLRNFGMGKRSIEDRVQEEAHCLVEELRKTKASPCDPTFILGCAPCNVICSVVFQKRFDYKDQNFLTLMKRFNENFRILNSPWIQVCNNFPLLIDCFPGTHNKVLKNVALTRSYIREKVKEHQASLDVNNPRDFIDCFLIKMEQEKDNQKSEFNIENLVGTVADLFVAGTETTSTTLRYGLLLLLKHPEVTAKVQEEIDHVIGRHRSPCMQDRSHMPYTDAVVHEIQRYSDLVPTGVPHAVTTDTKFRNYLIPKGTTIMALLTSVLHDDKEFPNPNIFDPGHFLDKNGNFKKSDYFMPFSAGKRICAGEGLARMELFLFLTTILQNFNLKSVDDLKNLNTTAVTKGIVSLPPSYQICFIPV", "test": "Inhibition of CYP-2C8 (amodiaquine deethylation, human liver microsomes)", "type": "in vitro ADME", "details": "amodiaquine 1 μM, 37° C.", "protocol": "(§1) All assays are carried out on a robotic system in 96 well plates. The final incubation volume contains TRIS buffer (0.1 M), MgCl2 (5 mM), human liver microsomes (0.05 mg/mL), amodiaquine (1 μM) and the test compound at five different concentrations or no compound (high control) in duplicate (e.g. highest concentration 10-50 μM with subsequent serial 1:4 dilutions). Following a short preincubation period, reactions are started with the cofactor (NADPH, 1 mM) and stopped by cooling the incubation down to 8° C. and subsequently by addition of one volume of acetonitrile. An internal standard solution—the stable isotope d5-desethylamodiaquine—is added after quenching of incubations. Peak area analyte (=metabolite formed) and internal standard is determined by LC-MS/MS. The resulting peak area ratio analyte to internal standard in these incubations is compared to a control activity containing no test compound. Within each of the assay runs, the IC50 of a positive control inhibitor (Montelukast) is determined. Experimental IC50 values are calculated by least square regression according to the following equation: % control activity=(100% control activity/(1+(I/IC50)S))−B with I=inhibitor concentration; S=slope factor; B=background activity (lower plateau of the inhibition curve)\nIf the inhibition of the reaction is already >50% at the lowest concentration of the test compound, the IC50 is assigned “<lowest concentration tested” (usually <0.4 μM). If the inhibition of the reaction is still <50% at the highest concentration of the test compound, the IC50 is assigned “> highest concentration tested” (usually >50 μM)."}, "[3]": {"molecular_target": "human GPR40 receptor (Homo sapiens (Human), UniProt O14842)", "sequence (O14842 whole entry)": "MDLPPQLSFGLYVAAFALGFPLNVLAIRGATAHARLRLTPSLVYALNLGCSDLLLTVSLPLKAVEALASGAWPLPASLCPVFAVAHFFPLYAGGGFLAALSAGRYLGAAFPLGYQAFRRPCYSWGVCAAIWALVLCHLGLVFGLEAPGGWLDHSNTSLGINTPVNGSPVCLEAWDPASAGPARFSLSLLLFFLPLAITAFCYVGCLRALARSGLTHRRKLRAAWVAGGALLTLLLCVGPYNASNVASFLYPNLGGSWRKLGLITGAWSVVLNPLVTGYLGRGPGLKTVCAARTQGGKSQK", "test": "IP1 accumulation measurements using the IPOne assay system", "type": "cell-based", "details": "1321N1 cells stably expressing human GPR40, 1 h stimulation", "protocol": "IP1 accumulation measurements using the IPOne assay system—1321N1 cells stably expressing human GPR40 receptor (Euroscreen, Belgium) are seeded 24 h before the assay in white 384-well plates in culture medium containing 10% FCS, 1% Na-Pyruvate and 400 μg/mL G418. IP1 is assayed according to the manufacturer's description (Cisbio Bioassays, France). In brief, the assay is started by substitution of the culture medium by stimulation buffer (Hepes 10 mM, CaCl2) 1 mM, MgCl2 0.5 mM, KCl 4.2 mM, NaCl 146 mM, glucose 5.5 mM and LiCl 50 mM, pH 7.4). Cells are stimulated for 1 h at 37° C., 5% CO2 by addition of the compounds that are diluted in stimulation buffer containing LiCl. Assays are stopped by adding HTRF-conjugates (IP1-d2 and Anti-IP1 cryptate Tb) and lysis buffer, provided by the manufacturer. After an incubation time of 1 h at room temperature plates are measured using an EnVision™, Perkin Elmer. The obtained fluorescence ratios at 665/615 […] are then used to calculate the pEC50 values using Assay Explorer 3.3 Software (Accelrys, Inc.) by interpolation using an IP1 reference curve and subsequent sigmoidal curve fitting allowing for a variable hill slope."}, "[4]": {"molecular_target": "cytochrome P450 2C9-isoenzyme (Homo sapiens (Human), UniProt P11712)", "sequence (P11712 whole entry)": "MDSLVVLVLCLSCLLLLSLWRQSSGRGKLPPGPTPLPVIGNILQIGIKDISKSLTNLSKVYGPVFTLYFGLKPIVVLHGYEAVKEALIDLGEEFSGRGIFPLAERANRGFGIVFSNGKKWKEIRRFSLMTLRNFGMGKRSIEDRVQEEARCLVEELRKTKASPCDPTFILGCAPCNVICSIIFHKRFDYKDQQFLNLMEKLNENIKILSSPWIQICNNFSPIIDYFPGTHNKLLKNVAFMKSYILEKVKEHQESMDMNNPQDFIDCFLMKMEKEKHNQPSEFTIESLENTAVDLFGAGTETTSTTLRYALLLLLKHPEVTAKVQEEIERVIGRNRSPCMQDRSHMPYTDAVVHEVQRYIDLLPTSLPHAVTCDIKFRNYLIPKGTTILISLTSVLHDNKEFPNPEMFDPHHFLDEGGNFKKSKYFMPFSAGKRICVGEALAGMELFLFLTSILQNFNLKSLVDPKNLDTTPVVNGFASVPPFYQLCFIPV", "test": "Inhibition of CYP-2C9 (diclofenac hydroxylation, human liver microsomes)", "type": "in vitro ADME", "details": "diclofenac 10 μM, 37° C.", "protocol": "as §1, with “(0.1” for “(0.05”, “diclofenac (10” for “amodiaquine (1”, “(e.g.,” for “(e.g.”, “^13C6-hydroxydiclofenac—is” for “d5-desethylamodiaquine—is”, “(sulfaphenazole)” for “(Montelukast)”, “curve) […]” for “curve)”"}}, "data": [{"smiles": "Cc1cc(OCCC(C)(C)O)cc(C)c1-c1ccc(F)c2c1CC[C@H]2Oc1ccc2c(c1)OC[C@H]2CC(=O)O", "note": "[Example 16 in WO 2013/144098, reference compound]", "values": [{"measurement": "solubility at 24 h", "setting": "[1]", "value": "< 1", "unit": "µg/mL"}, {"measurement": "IC50", "setting": "[2]", "value": 5, "unit": "µM"}]}, {"smiles": "Cc1cc(-c2nnn(C)n2)cc(C)c1-c1ccc(F)c2c1CC[C@H]2Oc1ccc2c(c1)OC[C@H]2CC(=O)O", "note": "[Example 138 in WO 2013/144098, reference compound]", "values": [{"measurement": "solubility at 24 h", "setting": "[1]", "value": "< 1", "unit": "µg/mL"}]}, {"smiles": "Cc1cc(OCCC(C)(C)O)cc(C)c1-c1cccc2c1CC[C@H]2Nc1cc2c(cn1)[C@H](CC(=O)O)CO2", "note": "[Example 3, ((S)-6-{(R)-4-[4-(3-Hydroxy-3-methyl-butoxy)-2,6-dimethyl-phenyl]-indan-1-ylamino}-2,3-dihydro-furo[3,2-c]pyridin-3-yl)-acetic Acid]", "values": [{"measurement": "EC50", "setting": "[3]", "value": 0.021, "unit": "µM"}]}, {"smiles": "Cc1cc(-c2nnn(C)n2)cc(C)c1-c1ccc(F)c2c1CC[C@H]2Nc1cc2c(cn1)[C@H](CC(=O)O)CO2", "note": "[Example 5, ((S)-6-{(R)-4-[2,6-Dimethyl-4-(2-methyl-2H-tetrazol-5-yl)-phenyl]-7-fluoro-indan-1-ylamino}-2,3-dihydro-furo[3,2-c]pyridin-3-yl)-acetic Acid]", "values": [{"measurement": "solubility at 24 h", "setting": "[1]", "value": 47, "unit": "µg/mL"}, {"measurement": "IC50", "setting": "[2]", "value": 35, "unit": "µM"}, {"measurement": "EC50", "setting": "[3]", "value": 0.006, "unit": "µM"}, {"measurement": "IC50", "setting": "[4]", "value": "> 50", "unit": "µM"}]}, {"smiles": "Cc1cc(OC2CCOCC2)cc(C)c1-c1ccc(F)c2c1CC[C@H]2Nc1cc2c(cn1)[C@H](CC(=O)O)CO2", "note": "[Example 10, ((S)-6-{(R)-4-[2,6-Dimethyl-4-(tetrahydro-pyran-4-yloxy)-phenyl]-7-fluoro-indan-1-ylamino}-2,3-dihydro-furo[3,2-c]pyridin-3-yl)-acetic Acid]", "values": [{"measurement": "EC50", "setting": "[3]", "value": 0.056, "unit": "µM"}]}, {"smiles": "Cc1cc(-c2cnccn2)cc(C)c1-c1ccc(F)c2c1CC[C@H]2Nc1cc2c(cn1)[C@H](CC(=O)O)CO2", "note": "[Example 20, {(S)-6-[(R)-4-(2,6-Dimethyl-4-pyrazin-2-yl-phenyl)-7-fluoro-indan-1-ylamino]-2,3-dihydro-furo[3,2-c]pyridin-3-yl}-acetic acid]", "values": [{"measurement": "EC50", "setting": "[3]", "value": 0.009, "unit": "µM"}]}, {"smiles": "Cc1cc(OCCC(C)(C)O)cc(C)c1-c1cccc2c1CC[C@H]2Nc1cc2c(cn1)[C@@H](CC(=O)O)CO2", "note": "[Example 4, ((R)-6-{(R)-4-[4-(3-Hydroxy-3-methyl-butoxy)-2,6-dimethyl-phenyl]-indan-1-ylamino}-2,3-dihydro-furo[3,2-c]pyridin-3-yl)-acetic acid]", "values": [{"measurement": "EC50", "setting": "[3]", "value": 0.751, "unit": "µM"}]}, {"smiles": "Cc1cc(-c2nnn(CC(C)(C)O)n2)cc(C)c1-c1ccc(F)c2c1CC[C@H]2Nc1cc2c(cn1)[C@H](CC(=O)O)CO2", "note": "[Example 15, [(S)-6-((R)-7-Fluoro-4-{4-[2-(2-hydroxo-2-methyl-propyl)-2H-tetrazol-5-yl]-2,6-dimethyl-phenyl}-indan-1-ylamino)-2,3-dihydro-furo[3,2-c]pyridin-3-yl]-acetic acid]", "values": [{"measurement": "EC50", "setting": "[3]", "value": 0.009, "unit": "µM"}]}, {"smiles": "Cc1cc(OCC2CCOC2)cc(C)c1-c1ccc(F)c2c1CC[C@H]2Nc1cc2c(cn1)[C@H](CC(=O)O)CO2", "note": "(stereo partly drawn) [Example 14, ((S)-6-{(R)-4-[2,6-Dimethyl-4-(tetrahydro-furan-3-ylmethoxy)-phenyl]-7-fluoro-indan-1-ylamino}-2,3-dihydro-furo[3,2-c]pyridin-3-yl)-acetic Acid]", "values": [{"measurement": "EC50", "setting": "[3]", "value": 0.027, "unit": "µM"}]}, {"smiles": "Cc1cc(O[C@@H]2CCOC2)cc(C)c1-c1ccc(F)c2c1CC[C@H]2Nc1cc2c(cn1)[C@H](CC(=O)O)CO2", "note": "[Example 9, [(S)-6-((R)-4-{2,6-Dimethyl-4-[(R)-(tetrahydro-furan-3-yl)oxy]-phenyl}-7-fluoro-indan-1-ylamino)-2,3-dihydro-furo[3,2-c]pyridin-3-yl]-acetic Acid]", "values": [{"measurement": "EC50", "setting": "[3]", "value": 0.057, "unit": "µM"}]}, {"smiles": "Cc1cc(OCCC(C)(C)O)cc(C)c1-c1ccc(F)c2c1CC[C@H]2Nc1cc2c(cn1)[C@H](CC(=O)O)CO2", "note": "[Example 1, ((S)-6-{(R)-7-Fluoro-4-[4-(3-hydroxy-3-methyl-butoxy)-2,6-dimethyl-phenyl]-indan-1-ylamino}-2,3-dihydro-furo[3,2-c]pyridin-3-yl)-acetic Acid]", "values": [{"measurement": "solubility at 24 h", "setting": "[1]", "value": "> 94", "unit": "µg/mL"}, {"measurement": "IC50", "setting": "[2]", "value": 30, "unit": "µM"}, {"measurement": "EC50", "setting": "[3]", "value": 0.015, "unit": "µM"}, {"measurement": "IC50", "setting": "[4]", "value": "> 50", "unit": "µM"}]}, {"smiles": "Cc1cc(OCCC(C)(C)O)cc(C)c1-c1ccc(F)c2c1CC[C@H]2Nc1cc2c(cn1)[C@@H](CC(=O)O)CO2", "note": "[Example 2, ((R)-6-{(R)-7-Fluoro-4-[4-(3-hydroxy-3-methyl-butoxy)-2,6-dimethyl-phenyl]-indan-1-ylamino}-2,3-dihydro-furo[3,2-c]pyridin-3-yl)-acetic Acid]", "values": [{"measurement": "EC50", "setting": "[3]", "value": 0.764, "unit": "µM"}]}]}
